Experimental findings from US20030144310A1 (priority 2001, published 2003) are described below.

One assay relates to rat bladder. As to the kind of experiment: Distension-induced rhythmic contraction (DIRC) model, micturition reflex. The assay is classed as in vivo. As to conditions: i.v.; for inhibition of bladder activity, persisted for: anesthetized rat, figure legend (FIG. 1, FIG. 2). On the procedure: The effects of compounds on the micturition reflex were assessed in the “distension-induced rhythmic contraction” (DIRC) model (also called “volume-induced rhythmic contraction” model) in rats, as described in previous publications (e.g. Maggi, et al., 1987; Morikawa, et al., 1992; Guarneri, et al., 1993). This model is widely considered to be predictive for the actions of drugs to treat human urge incontinence (also referred to as detrusor instability or unstable bladder). Examples of drugs that are active in this model which also are used therapeutically in humans include oxybutynin and baclofen (Morikawa et al, 1992); imipramine and nortriptyline (36); and nifedipine and terodiline (37).
Female Sprague Dawley rats weighing approximately 300 g were anesthetized with subcutaneous urethane ([…]). The trachea was cannulated with PE240 tubing to provide a clear airway throughout the experiment. A midline abdominal incision was made and the left and right ureters were isolated. The ureters were ligated distally (to prevent escape of fluids from the bladder) and cannulated proximally with PE10 tubing. The incision was closed using 4-0 silk sutures, leaving the PE10 lines routed to the exterior for the elimination of urine. The bladder was canulated via the transurethral route using PE50 tubing inserted 2.5 cm beyond the urethral opening. This cannula was secured to the tail using tape and connected to a pressure transducer. To prevent leakage from the bladder, the cannula was tied tightly to the exterior urethral opening using 4-0 silk.
To initiate the micturition reflex, the bladder was first emptied by applying pressure to the lower abdomen, and then filled with normal saline in 100 μL increments (maximum=2 ml) until spontaneous bladder contractions occurred (typically 20-40 mmHg) at a rate of one contraction every 2 to 3 minutes. Once a regular rhythm was established, vehicle (saline) or test compounds were administered i.v. to examine their effects on bladder activity. The effect of a compound which inhibited the micturition reflex was expressed as its “disappearance time”, defined as the time between successive bladder contractions in the presence of the test compound minus the time between contractions before compound administration.
Female Sprague Dawley rats weighing approximately 300 g were anesthetized with subcutaneous urethane (1.2 g/kg). The trachea was cannulated with PE240 tubing to provide a clear airway throughout the experiment. A midline abdominal incision was made and the left and right ureters were isolated. The ureters were ligated distally (to prevent escape of fluids from the bladder) and cannulated proximally with PE10 tubing. […]

Assay [1] deals with T1, rNPFF-2 (Rattus norvegicus, UniProt Q9EQD2).
T1 construct: expressed in transfected cells
Kind of assay: Functional activity (EC50 and intrinsic activity relative to NPFF). The conditions noted are these: for Functional Activity rNPFF-2 I.A. %: intrinsic activity as percentage of maximal response by NPFF; for EC50: tested 0.001 nM to 3600 nM, read-out: Functional Activity rNPFF-2 EC50. The format is cell-based.
Source text: (§1) The data shown are representative of at least two independent experiments.

Assay [2] has as its target T2, rNPFF-1 (Rattus norvegicus, UniProt Q9EP86).
T2 construct: expressed in transfected cells
The assay is described as above. The assay is classed as cell-based. The conditions noted are these: for Functional Activity rNPFF-1 I.A. %: intrinsic activity as percentage of maximal response by NPFF; for EC50: tested 0.001 nM to 3600 nM.
Source text: as §1

Assay [3] addresses T1, rNPFF-2. Kind of assay: Radioligand binding assay, competitive displacement of [125I]1DMeNPFF at cloned NPFF receptors. The conditions noted are these: cloned rat receptor.
For assay [4], the target named is T2, rNPFF-1. Described as above. The conditions noted are these: cloned rat receptor.

The structures appear in SMILES notation. A value given as a limit tells only on which side of the number the result lay.

T2 sequence (Q9EP86 whole entry): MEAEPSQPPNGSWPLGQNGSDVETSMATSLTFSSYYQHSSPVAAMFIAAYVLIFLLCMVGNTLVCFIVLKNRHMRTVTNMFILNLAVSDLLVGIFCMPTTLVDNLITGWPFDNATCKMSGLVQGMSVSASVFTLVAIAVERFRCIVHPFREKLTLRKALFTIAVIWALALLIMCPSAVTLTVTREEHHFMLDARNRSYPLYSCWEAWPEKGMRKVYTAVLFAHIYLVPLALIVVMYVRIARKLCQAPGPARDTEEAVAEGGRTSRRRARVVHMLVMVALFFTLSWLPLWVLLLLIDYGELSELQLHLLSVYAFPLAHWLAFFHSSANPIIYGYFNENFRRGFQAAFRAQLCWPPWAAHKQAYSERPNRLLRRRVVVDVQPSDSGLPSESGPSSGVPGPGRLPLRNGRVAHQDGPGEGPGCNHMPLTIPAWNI
T1 sequence (Q9EQD2 whole entry): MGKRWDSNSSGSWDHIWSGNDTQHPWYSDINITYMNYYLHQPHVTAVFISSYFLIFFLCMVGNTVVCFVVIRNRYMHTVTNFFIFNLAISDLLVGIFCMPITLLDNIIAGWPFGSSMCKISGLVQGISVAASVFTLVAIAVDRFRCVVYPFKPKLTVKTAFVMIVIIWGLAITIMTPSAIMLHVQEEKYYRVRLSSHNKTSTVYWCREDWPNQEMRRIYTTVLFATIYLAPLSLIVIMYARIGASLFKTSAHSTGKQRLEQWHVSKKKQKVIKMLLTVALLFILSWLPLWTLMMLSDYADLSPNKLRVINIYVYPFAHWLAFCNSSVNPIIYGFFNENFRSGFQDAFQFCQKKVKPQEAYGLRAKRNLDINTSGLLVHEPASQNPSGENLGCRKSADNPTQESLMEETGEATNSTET

Regarding `Cc1ccc2c(C)cc(NC(=N)N)nc2c1` [N-(4,7-dimethyl-2-quinolinyl)guanidine], in the assay on rat bladder (3 mg/kg), the “inhibition of distention induced contractions of the rat bladder” value is “complete inhibition”. The “inhibition of bladder activity, persisted for” value in the assay on rat bladder turned out to be 12 min.

Consider `Cc1cc(NC(=N)N)nc2ccc(Cl)cc12` [N-(6-chloro-4-methyl-2-quinolinyl)guanidine], for which the “inhibition of distention induced contractions of the rat bladder” value with rat bladder (1 mg/kg) is “complete inhibition”. The “inhibition of bladder activity, persisted for” value in the assay on rat bladder is on record as 35 min.

The EC50 is the concentration that produces a half-maximal response. For orientation: Ki means the equilibrium dissociation constant of an inhibitor or competing ligand from its target. On to `N=C(N)NCCC[C@H](NS(=O)(=O)c1ccc(Cl)cc1Cl)C(=O)N[C@@H](Cc1ccccc1)C(N)=O` [Compound 1010], for which, on rNPFF-2 [1], the “Functional Activity rNPFF-2 I.A. %” value is on record as 28% and the EC50 is 2980 nM. Further, on rNPFF-1 [2], the “Functional Activity rNPFF-1 I.A. %” value was determined as 85% and the EC50 is 594 nM. The compound further had an inhibition constant Ki at rNPFF-2 [3] of 1860 nM. This compound had a Ki at rNPFF-1 [4] of 871 nM.

For `COc1ccc(S(=O)(=O)N[C@@H](CCCNC(=N)N)C(=O)N[C@@H](Cc2ccccc2)C(N)=O)cc1OC` [Compound 1015], at rNPFF-2 [1], the “Functional Activity rNPFF-2 I.A. %” value was 74% and the EC50 is 1810 nM. Further, on rNPFF-1 [2], the “Functional Activity rNPFF-1 I.A. %” value stood at 84% and the half-maximal effective concentration (EC50) is 140 nM. In addition, the Ki on rNPFF-2 [3] was greater than 10000 nM. Further, at rNPFF-1 [4], the affinity, expressed as Ki, was 462 nM.
